System: Plasmodium berghei
Assay: Luciferase/luciferin-expressing antifolate-resistant parasites were used to infect a culture of HepG2 cells that were pre-incubated with compounds. Infected hepatocytes emit light due to the luciferase reaction. Assay results are presented as the percent inhibition of light emission compared to control. […]
Type: functional
Conditions: sporozoite; for IC50: read-out: LUCIFERASE INFECTION ASSAY - IC50; for IC90: read-out: LUCIFERASE INFECTION ASSAY - IC90

Cc1onc(-c2c(F)cccc2Cl)c1C(=O)NC1CCSC1=O (stereo unspecified)
IC50: > 9.3 µM
IC90: > 9.3 µM

CCN(CC)C(=O)CSc1nnc2nnc3cc(C)ccc3n12
IC50: > 9.99 µM
IC90: > 9.99 µM

c1ccc(CN2CCC(Nc3ncnc4sccc34)CC2)cc1
IC50: 8.87 µM
IC90: > 10 µM

Nc1nnc(SCc2c(F)cccc2Cl)[nH]1
IC50: > 12.8 µM
IC90: > 12.8 µM

O=C(NC(=O)N1CCc2c([nH]c3ccccc23)C1C(F)(F)F)c1ccccc1 (stereo unspecified)
IC50: > 8.52 µM
IC90: > 8.52 µM

N#CCS(=O)(=O)c1ccc(OC(F)(F)F)cc1
IC50: > 12.4 µM
IC90: > 12.4 µM

FC(F)(F)c1cccc(-c2nc3ccnc(Nc4ccccc4)c3[nH]2)c1
IC50: 3.2 µM
IC90: > 10 µM

CC1=CC(=O)N(c2cc(Cl)cc(Cl)c2)C1=O
IC50: > 12.9 µM
IC90: > 12.9 µM

CC(C)OC(=O)Nc1cc(Cl)cc(Cl)c1
IC50: > 13.3 µM
IC90: > 13.3 µM

O=C(Nc1cc(Cl)cc(Cl)c1)N1CCC(n2cccc2)CC1
IC50: > 9.76 µM
IC90: > 9.76 µM

CC(=O)Nc1ccc(-c2cnc3ccc(-c4ccoc4)nn23)cc1
IC50: 3.52 µM
IC90: 4.31 µM

Cc1c2cnn(C)c(=O)c2c(C)n1-c1ccccc1
IC50: > 13 µM
IC90: > 13 µM

CSc1ccc(OC(=O)Nc2ccccc2)cc1
IC50: > 12.7 µM
IC90: > 12.7 µM

CCOC(=O)N1CCN(C2c3ccccc3-c3ccccc32)CC1
IC50: 8.79 µM
IC90: > 10.2 µM

O=C(CN1CCCCC1)Nc1c(F)cccc1F
IC50: > 13 µM
IC90: > 13 µM

COc1ccc(CO)c(Cl)c1OC
IC50: > 16.3 µM
IC90: > 16.3 µM

CCOc1nc(N)c(C#N)c(-c2ccc(C(F)(F)F)cc2)c1C#N
IC50: 4.53 µM
IC90: 8.21 µM

CSc1sc(C(=O)Sc2ccccc2)cc1S(=O)(=O)C(C)C
IC50: > 8.86 µM
IC90: > 8.86 µM

Cc1ccc(S(=O)(=O)NN=c2nc[nH]c3sccc23)cc1
IC50: 2.59 µM
IC90: 5.7 µM

Cc1c(C(=O)Nc2cccc(Cl)c2)sc2nc(C(F)(F)F)nn12
IC50: > 9.15 µM
IC90: > 9.15 µM

COc1ccc(Nc2nccc3nc(-c4cccc(OC(F)(F)F)c4)[nH]c23)cc1OC
IC50: 3.54 µM
IC90: > 10 µM

O=C(Nc1ccccc1)c1ccc(C#Cc2ccccc2)o1
IC50: > 11.5 µM
IC90: > 11.5 µM

COc1cc(NS(=O)(=O)c2ccc(C)cc2)c(OC)cc1Cl
IC50: 2.01 µM
IC90: 3.66 µM

Cc1ccc(Oc2cccc(F)c2C#N)cc1
IC50: > 14.5 µM
IC90: > 14.5 µM

COc1ccccc1N1CCN(S(=O)(=O)c2cccc(Cl)c2)CC1
IC50: > 9 µM
IC90: > 9 µM

N#Cc1ccc(N2CCCN(C(=O)Nc3cc(Cl)cc(Cl)c3)CC2)nc1
IC50: > 8.46 µM
IC90: > 8.46 µM

COc1cccc(-c2ccc3ncc(-c4cccc(C(=O)NCCN(C)C)c4)n3n2)c1
IC50: 1.69 µM
IC90: 4.07 µM

FC(F)(F)Oc1cccc(-c2nc3ccnc(NCCc4ccncc4)c3[nH]2)c1
IC50: 3.37 µM
IC90: > 10 µM

O=C(CCN1CCOCC1)Nc1cc(C(F)(F)F)ccc1Cl
IC50: > 9.8 µM
IC90: > 9.8 µM

CN(C)c1cccc(CNc2nccc3nc(-c4ccncc4)[nH]c23)c1
IC50: > 10 µM
IC90: > 10 µM

N#Cc1ccc(NC(=O)Nc2ccc(C#N)cc2)cc1
IC50: 3.52 µM
IC90: 4.08 µM

Cn1c(CSc2cccs2)nnc1SCC(=O)Nc1ccc(F)cc1F
IC50: > 8 µM
IC90: > 8 µM

CSc1nccc(-c2ccc(S(=O)(=O)N3CCCCC3)s2)n1
IC50: > 9.28 µM
IC90: > 9.28 µM

Nc1ccccc1C(=O)Nc1cc(C(F)(F)F)cc(C(F)(F)F)c1
IC50: > 9.48 µM
IC90: > 9.48 µM

N#CC(Nc1ccc(C(F)(F)F)cc1)c1ccccc1 (stereo unspecified)
IC50: > 11.9 µM
IC90: > 11.9 µM

CC(C)(Oc1ccc(C#N)cc1)C(=O)O
IC50: > 16.1 µM
IC90: > 16.1 µM

O=S(=O)(c1ccccc1)c1ccc(S(=O)(=O)N2CCCC2)s1
IC50: > 9.23 µM
IC90: > 9.23 µM

Cc1c(S(=O)(=O)c2ccc(Cl)cc2)csc1C(=O)N1CC(C)OC(C)C1 (stereo unspecified)
IC50: > 7.97 µM
IC90: > 7.97 µM
